Source: patent publication US20050048011A1, “Skin preparation comprising a tocopherol derivative for external application” (priority 2001, published 2005)

Columns and labels:
[1] = tested on: three dimensional model of human skin tissue (TESTSKIN LSD-d, Toyobo K. K.); experiment: Permeability of three dimensional model of human skin tissue and tocopherol conversion; conditions: for level of tocopherol in model skin: 1% solution, 6 hours
Description: 40 μL of a 1% solution of the below test substances 1) to 7) dissolved or dispersed in Dulbecco's PBS (−) were applied onto the tissue surface of a three dimensional model of human skin tissue (TESTSKIN™ LSD-d, Toyobo K. K.) and were cultured at 37° C. under 5% CO2 for 6 hours. After this, the solutions of the test substances were removed by aspiration and sampling was carried out.
The sample model skin was washed with Dulbecco's PBS (−) and the tissue surfaces onto which the test substances were applied were punched out with a φ 6 mm punch, and were homogenated in a HEPES buffer solution (pH 7.2), and quantitative analysis of the α-tocopherol and γ-tocopherol were carried out by high speed liquid chromatography. Quantitative analysis of the amount of protein in the model skin was carried out according to the Lowry method. • 1) α-tocopherol dimethylglycine ester hydrochloride • 2) α-tocopherol sarcosine ester hydrochloride • 3) αa-tocopherol glycine ester • 4) γ-tocopherol dimethylglycine ester hydrochloride • 5) γ-tocopherol sarcosine ester hydrochloride • 6) γ-tocopherol glycine ester • 7) tocopherol acetate

[2] = tested on: skin removed from the back of a hairless mouse; experiment: Evaluation of skin penetrability (α-tocopherol amount in skin); conditions: 4 hours at 37° C.; for amount of α-tocopherol in the skin: Dulbecco's MEM containing 0.50 of test substance on epidermis side, not added: 10 nmol/g of skin; for increase of the α-tocopherol amount in treated skin: hairless mouse skin
[3] = tested on: keratinocytes of normal human epidermis; experiment: Conversion to α-tocopherol in keratinocyte of human epidermis (cell spall solution); conditions: 37° C. for 2 hours; for increase of the α-tocopherol amount in cell spall solution: 1 mM; for amount of α-tocopherol liberated in the reaction solution: final concentration 1 mM, not added: lower than detection limit
Description: The cells were harvested and spalled by freeze-thawing method. To this cell spall solution, 1), 2), 3) or 4) was added to have a final concentration of 1 mM. The resulting solution was kept at 37° C. for 2 hours and then the amount of α-tocopherol liberated in the reaction solution was measured.

[4] = tested on: skin removed from the back of a hairless mouse; conditions: 4 hours at 37° C.; for amount of γ-tocopherol in the skin: Dulbecco's MEM containing 0.50 of test substance on epidermis side, not added: lower than detection limit; for increase of the γ-tocopherol amount in treated skin: hairless mouse skin
Description: Then, the amount of γ-tocopherol in the skin was measured.

[5] = tested on: keratinocytes of normal human epidermis; experiment: Conversion to γ-tocopherol in keratinocyte of human epidermis (cell spall solution); conditions: 37° C. for 2 hours; for increase of the γ-tocopherol amount in cell spall solution: 1 mM; for amount of γ-tocopherol liberated in the reaction solution: final concentration 1 mM, not added: lower than detection limit
Description: The cells were harvested and spalled by freeze-thawing method. To this cell spall solution, 1), 2) or 3) was added to have a final concentration of 1 mM. The resulting solution was kept at 37° C. for 2 hours and then the amount of γ-tocopherol liberated in the reaction solution was measured.

[6] = 40 μL of 1% solution in Dulbecco's PBS (−) on tissue surface, 37° C., 5% CO2, 6 hours

CC(=O)Oc1c(C)c(C)c2c(c1C)CCC(C)(CCC[C@H](C)CCC[C@H](C)CCCC(C)C)O2 (stereo partly drawn) [Tocopherol acetate, reference compound]
the amount of α-tocopherol in model skin ([1]; human, 6 h, 1 %): 1.0 nmol/mg protein

Cc1c(C)c2c(c(C)c1OC(=O)CN(C)C)CCC(C)(CCCC(C)CCCC(C)CCCC(C)C)O2.Cl (stereo not drawn) [α-Tocopherol dimethylglycine ester hydrochloride]
level of tocopherol in model skin [1]: significantly increased | the amount of α-tocopherol in model skin [1, 6]: 2.8 nmol/mg protein | amount of α-tocopherol in the skin [2]: 17 nmol/g of skin | increase of the α-tocopherol amount in treated skin [2]: significant increase | increase of the α-tocopherol amount in cell spall solution [3]: significant increase | amount of α-tocopherol liberated in the reaction solution [3]: 6.9 nmol/ml of cell suspension

CNCC(=O)Oc1c(C)c(C)c2c(c1C)CCC(C)(CCCC(C)CCCC(C)CCCC(C)C)O2.Cl (stereo not drawn) [α-Tocopherol sarcosine ester hydrochloride]
level of tocopherol in model skin [1]: significantly increased | the amount of α-tocopherol in model skin [1, 6]: 3.9 nmol/mg protein | amount of α-tocopherol in the skin [2]: 20 nmol/g of skin | increase of the α-tocopherol amount in treated skin [2]: significant increase | increase of the α-tocopherol amount in cell spall solution [3]: significant increase | amount of α-tocopherol liberated in the reaction solution [3]: 26.9 nmol/ml of cell suspension

Cc1c(C)c2c(c(C)c1OC(=O)CN)CCC(C)(CCCC(C)CCCC(C)CCCC(C)C)O2 (stereo not drawn) [αa-tocopherol glycine ester, reference compound]
the amount of α-tocopherol in model skin [1, 6]: 1.2 nmol/mg protein

Cc1c(OC(=O)CN(C)C)cc2c(c1C)OC(C)(CCCC(C)CCCC(C)CCCC(C)C)CC2.Cl (stereo not drawn) [γ-Tocopherol dimethylglycine ester hydrochloride]
amount of γ-tocopherol in the skin [4]: 20 nmol/g of skin | increase of the γ-tocopherol amount in treated skin [4]: significant increase | level of tocopherol in model skin [1]: significantly increased | the amount of γ-tocopherol in model skin [1, 6]: 4.7 nmol/mg protein | increase of the γ-tocopherol amount in cell spall solution [5]: significant increase | amount of γ-tocopherol liberated in the reaction solution [5]: 28.1 nmol/ml of cell suspension

CNCC(=O)Oc1cc2c(c(C)c1C)OC(C)(CCCC(C)CCCC(C)CCCC(C)C)CC2.Cl (stereo not drawn) [γ-Tocopherol sarcosine ester hydrochloride]
amount of γ-tocopherol in the skin [4]: 2.1 nmol/g of skin | increase of the γ-tocopherol amount in treated skin [4]: significant increase | level of tocopherol in model skin [1]: significantly increased | the amount of γ-tocopherol in model skin [1, 6]: 5.5 nmol/mg protein | increase of the γ-tocopherol amount in cell spall solution [5]: significant increase | amount of γ-tocopherol liberated in the reaction solution [5]: 30.3 nmol/ml of cell suspension

Cc1c(OC(=O)CN)cc2c(c1C)OC(C)(CCCC(C)CCCC(C)CCCC(C)C)CC2 (stereo not drawn) [γ-tocopherol glycine ester, reference compound]
the amount of γ-tocopherol in model skin [1, 6]: 1.5 nmol/mg protein
